Test results as given in patent US10544147B2, “Purine inhibitors of human phosphatidylinositol 3-kinase delta” (MERCK SHARP & DOHME CORP., priority 2016, dated 2020).

Columns and labels:
PI3Kdelta = PI3Kdelta (Homo sapiens (Human), UniProt O00329); assay: HTRF PI3K biochemical assay, delta isoform; settings: 0.3 nM enzyme, 100 uM ATP, 50 uM PIP2; form screened (neutral or TFA salt)
PI3Kalpha = PI3Kalpha (Homo sapiens (Human), UniProt P42336); assay: HTRF PI3K biochemical assay, alpha isoform (selectivity versus delta); settings: ratio PI3K-alpha IC50 value/PI3K-delta IC50 value
Chain of PI3Kalpha (P42336 whole entry, canonical isoform): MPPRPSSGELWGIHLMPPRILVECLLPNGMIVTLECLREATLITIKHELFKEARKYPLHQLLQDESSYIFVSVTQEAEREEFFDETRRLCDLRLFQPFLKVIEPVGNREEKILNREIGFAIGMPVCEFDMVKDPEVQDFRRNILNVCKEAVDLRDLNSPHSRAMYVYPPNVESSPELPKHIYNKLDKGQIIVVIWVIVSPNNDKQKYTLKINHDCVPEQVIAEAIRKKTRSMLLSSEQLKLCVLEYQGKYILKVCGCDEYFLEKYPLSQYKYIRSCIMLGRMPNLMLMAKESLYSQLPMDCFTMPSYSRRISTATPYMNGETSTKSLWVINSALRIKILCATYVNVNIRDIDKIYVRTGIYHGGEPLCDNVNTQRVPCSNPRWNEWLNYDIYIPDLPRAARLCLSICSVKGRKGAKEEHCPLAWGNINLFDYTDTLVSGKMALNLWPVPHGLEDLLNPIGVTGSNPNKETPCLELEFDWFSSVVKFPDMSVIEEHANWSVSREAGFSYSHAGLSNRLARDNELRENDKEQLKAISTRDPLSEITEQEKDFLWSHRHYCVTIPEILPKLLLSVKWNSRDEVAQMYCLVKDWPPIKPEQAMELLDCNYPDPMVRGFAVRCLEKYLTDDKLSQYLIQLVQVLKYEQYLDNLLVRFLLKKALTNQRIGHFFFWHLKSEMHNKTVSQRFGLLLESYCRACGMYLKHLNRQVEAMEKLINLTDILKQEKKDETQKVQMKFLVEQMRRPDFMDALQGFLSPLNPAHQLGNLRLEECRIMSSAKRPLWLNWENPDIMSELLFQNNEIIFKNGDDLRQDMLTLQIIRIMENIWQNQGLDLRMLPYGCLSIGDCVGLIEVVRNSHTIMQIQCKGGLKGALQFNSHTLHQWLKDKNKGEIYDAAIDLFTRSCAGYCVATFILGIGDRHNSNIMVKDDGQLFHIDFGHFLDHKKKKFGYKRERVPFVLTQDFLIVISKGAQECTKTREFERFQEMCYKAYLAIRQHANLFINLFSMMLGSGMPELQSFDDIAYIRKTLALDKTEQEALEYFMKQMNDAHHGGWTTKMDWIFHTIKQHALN
Chain of PI3Kalpha (P27986 whole entry partner, canonical isoform): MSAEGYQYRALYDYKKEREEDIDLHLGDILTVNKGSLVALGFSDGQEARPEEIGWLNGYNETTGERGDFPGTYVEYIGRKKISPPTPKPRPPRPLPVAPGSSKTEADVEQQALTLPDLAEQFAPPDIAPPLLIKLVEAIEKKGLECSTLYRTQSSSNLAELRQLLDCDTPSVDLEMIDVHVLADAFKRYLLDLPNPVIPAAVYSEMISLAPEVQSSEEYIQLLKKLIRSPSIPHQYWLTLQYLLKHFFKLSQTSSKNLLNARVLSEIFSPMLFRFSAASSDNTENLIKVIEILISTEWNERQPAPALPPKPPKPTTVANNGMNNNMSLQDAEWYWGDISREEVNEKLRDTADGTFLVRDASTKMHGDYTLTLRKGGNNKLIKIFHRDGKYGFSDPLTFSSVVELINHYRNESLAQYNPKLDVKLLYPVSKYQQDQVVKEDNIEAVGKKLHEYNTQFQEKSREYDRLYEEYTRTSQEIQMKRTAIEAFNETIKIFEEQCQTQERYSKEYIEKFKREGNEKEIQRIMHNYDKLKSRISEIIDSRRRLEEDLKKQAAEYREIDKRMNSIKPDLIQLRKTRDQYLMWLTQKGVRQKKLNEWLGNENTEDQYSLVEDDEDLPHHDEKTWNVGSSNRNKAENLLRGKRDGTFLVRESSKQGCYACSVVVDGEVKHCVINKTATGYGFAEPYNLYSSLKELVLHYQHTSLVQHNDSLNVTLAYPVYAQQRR

Chain of PI3Kdelta (O00329 whole entry, canonical isoform): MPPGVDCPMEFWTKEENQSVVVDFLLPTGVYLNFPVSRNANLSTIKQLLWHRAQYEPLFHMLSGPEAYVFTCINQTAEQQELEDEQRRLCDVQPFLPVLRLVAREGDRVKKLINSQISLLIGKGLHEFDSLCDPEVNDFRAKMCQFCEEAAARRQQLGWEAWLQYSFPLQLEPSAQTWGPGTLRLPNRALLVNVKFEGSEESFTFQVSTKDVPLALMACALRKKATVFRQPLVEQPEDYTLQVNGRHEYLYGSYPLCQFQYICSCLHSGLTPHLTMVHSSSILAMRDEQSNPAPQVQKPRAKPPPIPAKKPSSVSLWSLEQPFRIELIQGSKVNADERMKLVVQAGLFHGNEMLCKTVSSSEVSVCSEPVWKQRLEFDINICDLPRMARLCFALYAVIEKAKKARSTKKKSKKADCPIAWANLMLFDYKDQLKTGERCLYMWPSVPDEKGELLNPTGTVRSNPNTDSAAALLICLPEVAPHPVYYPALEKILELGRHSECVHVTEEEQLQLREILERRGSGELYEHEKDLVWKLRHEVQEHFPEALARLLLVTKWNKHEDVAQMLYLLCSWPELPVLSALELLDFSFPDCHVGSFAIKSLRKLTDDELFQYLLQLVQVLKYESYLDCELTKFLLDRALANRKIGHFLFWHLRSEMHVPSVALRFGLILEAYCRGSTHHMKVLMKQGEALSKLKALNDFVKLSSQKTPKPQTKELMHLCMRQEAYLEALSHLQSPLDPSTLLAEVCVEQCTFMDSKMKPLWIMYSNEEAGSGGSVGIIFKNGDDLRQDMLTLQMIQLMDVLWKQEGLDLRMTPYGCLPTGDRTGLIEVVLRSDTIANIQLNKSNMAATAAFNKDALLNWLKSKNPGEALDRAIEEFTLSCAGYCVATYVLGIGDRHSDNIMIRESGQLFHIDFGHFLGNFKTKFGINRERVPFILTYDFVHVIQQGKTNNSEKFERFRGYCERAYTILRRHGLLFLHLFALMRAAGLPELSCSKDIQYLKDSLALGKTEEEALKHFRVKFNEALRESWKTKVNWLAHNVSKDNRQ
Chain of PI3Kdelta (P27986 whole entry partner, canonical isoform): as the sequence (P27986 whole entry partner, canonical isoform) above

`Cc1ncc(-c2nc3c(-c4cnc5c(c4)C(C)(NCC(C)(C)F)C(=O)N5)ncnc3n2C)cn1` (single isomer, unassigned) [Compound 2-59, (S or R)-5-(9-methyl-8-(2-methylpyrimidin-5-yl)-9H-purin-6-yl)-3-((2-fluoro-2-methylpropyl)amino)-3-methyl-1H-pyrrolo[2,3-b]pyridin-2(3H)-one] was tested, and the IC50 (PI3Kdelta) was 2 nM and the “Relative Selectivity versus PI3Kalpha” value (PI3Kalpha) was greater than 10.

For `CCn1c(-c2cnc(C)nc2)nc2c(-c3cnc4c(c3)C(C)(N3CC(C)(C#N)C3)C(=O)N4)ncnc21` (single isomer, unassigned) [Compound 2-54, (S or R)-1-(5-(9-ethyl-8-(2-methylpyrimidin-5-yl)-9H-purin-6-yl)-3-methyl-2-oxo-2,3-dihydro-1H-pyrrolo[2,3-b]pyridin-3-yl)-3-methylazetidine-3-carbonitrile], the IC50 (PI3Kdelta) was 168 nM and the “Relative Selectivity versus PI3Kalpha” value (PI3Kalpha) was greater than 10.

With `CCn1c(-c2cnc(C)nc2)nc2c(-c3ccc4c(c3)C(C)(NCC(C)C)C(=O)N4)ncnc21` (single isomer, unassigned) [Compound 2-65, (R or S)-5-(9-ethyl-8-(2-methylpyrimidin-5-yl)-9H-purin-6-yl)-3-(isobutylamino)-3-methylindolin-2-one] the IC50 (PI3Kdelta) was 79 nM and the “Relative Selectivity versus PI3Kalpha” value (PI3Kalpha) was greater than 10.

`CCn1c(-c2cnc(C)nc2)nc2c(-c3ccc4c(c3)C(C)(N(C)CCOC)C(=O)N4)ncnc21` (racemic) [Compound 2-14, (R and S)-5-[9-ethyl-8-(2-methylpyrimidin-5-yl)-9H-purin-6-yl]-3-[(2-methoxyethyl)(methyl)amino]-3-methyl-1,3-dihydro-2H-indol-2-one] was tested, and the IC50 (PI3Kdelta) was 46 nM and the “Relative Selectivity versus PI3Kalpha” value (PI3Kalpha) was greater than 10.

For `CCn1c(-c2cnc(C)nc2)nc2c(-c3ccc4c(c3)C(C)(N3CCC5OCCC53)C(=O)N4)ncnc21` (racemic) [Compound 2-10, (R and S)-5-[9-ethyl-8-(2-methylpyrimidin-5-yl)-9H-purin-6-yl]-3-(hexahydro-4H-furo[3,2-b]pyrrol-4-yl)-3-methyl-1,3-dihydro-2H-indol-2-one], the IC50 (PI3Kdelta) was 14 nM and the “Relative Selectivity versus PI3Kalpha” value (PI3Kalpha) was greater than 10.

In the case of `CCn1c(C(F)F)nc2c(-c3ccc4c(c3)C(C)(Cc3ccccc3)C(=O)N4)ncnc21` (single isomer, unassigned) [Compound 1-24, (R or S)-benzyl-5-(8-(difluoromethyl)-9-ethyl-9H-purin-6-yl)-3-methylindolin-2-one], the IC50 (PI3Kdelta) is reported as 658 nM and the “Relative Selectivity versus PI3Kalpha” value (PI3Kalpha) is reported as greater than 10.

With `CCn1c(-c2cnc(C)nc2)nc2c(-c3ccc4c(c3)C(C)(NCC(C)(C)C#N)C(=O)N4)ncnc21` (single isomer, unassigned) [Compound 2-39, (R or S)-3-((5-(9-ethyl-8-(2-methylpyrimidin-5-yl)-9H-purin-6-yl)-3-methyl-2-oxoindolin-3-yl)amino)-2,2-dimethylpropanenitrile] the IC50 (PI3Kdelta) was 3 nM and the “Relative Selectivity versus PI3Kalpha” value (PI3Kalpha) was greater than 10.

`CCn1c(-c2cnc(C)nc2)nc2c(-c3ccc4c(c3)C(C)(NCCOC)C(=O)N4)ncnc21` (racemic) [Compound 2-16, (R and S)-5-[9-ethyl-8-(2-methylpyrimidin-5-yl)-9H-purin-6-yl]-3-[(2-methoxyethyl)amino]-3-methyl-1,3-dihydro-2H-indol-2-one] was tested, and the IC50 (PI3Kdelta) was 43 nM and the “Relative Selectivity versus PI3Kalpha” value (PI3Kalpha) was greater than 10.

`CCn1c(-c2cnc(C)nc2)nc2c(-c3ccc4oc(=O)n(C5CCOCC5)c4c3)ncnc21` [Compound 5-9, 5-(9-ethyl-8-(2-methylpyrimidin-5-yl)-9H-purin-6-yl)-3-(tetrahydro-2H-pyran-4-yl)benzo[d]oxazol-2(3H)-one] was tested, and the IC50 (PI3Kdelta) was 151 nM and the “Relative Selectivity versus PI3Kalpha” value (PI3Kalpha) was greater than 10.

With `CCn1c(-c2cnc(C)nc2)nc2c(-c3ccc4c(c3)C(C)(NC3CCOCC3)C(=O)N4)ncnc21` (racemic) [Compound 2-25, (R and S)-5-[9-ethyl-8-(2-methylpyrimidin-5-yl)-9H-purin-6-yl]-3-methyl-3-(tetrahydro-2H-pyran-4-ylamino)-1,3-dihydro-2H-indol-2-one] the IC50 (PI3Kdelta) was 28 nM and the “Relative Selectivity versus PI3Kalpha” value (PI3Kalpha) was greater than 10.

With `CCn1c(-c2cnc(C)nc2)nc2c(-c3ccc4c(c3)C(C)(CC(C)(C)O)C(=O)N4)ncnc21` (single isomer, unassigned) [Compound 1-41, 5-(9-Ethyl-8-(2-methylpyrimidin-5-yl)-9H-purin-6-yl)-3-(2-hydroxy-2-methylpropyl)-3-methylindolin-2-one] the IC50 (PI3Kdelta) was 23 nM and the “Relative Selectivity versus PI3Kalpha” value (PI3Kalpha) was greater than 10.

With `CCn1c(-c2cnc(C)nc2)nc2c(-c3ccc4oc(=O)n(C(C)c5ccccc5)c4c3)ncnc21` (single isomer, unassigned) [Compound 5-2, (R or S)-5-[9-ethyl-8-(2-methylpyrimidin-5-yl)-9H-purin-6-yl]-3-(1-phenylethyl)-1,3-benzoxazol-2(3H)-one] the IC50 (PI3Kdelta) was 37 nM and the “Relative Selectivity versus PI3Kalpha” value (PI3Kalpha) was greater than 10.

`CCn1c(-c2cnc(C)nc2)nc2c(-c3ccc4c(c3)C(C)(CC(C)C)NS4(=O)=O)ncnc21` (single isomer, unassigned) [Compound 4-5, (R or S)-9-ethyl-6-[3-methyl-3-(2-methylpropyl)-1,1-dioxido-2,3-dihydro-1,2-benzisothiazol-5-yl]-8-(2-methylpyrimidin-5-yl)-9H-purine] was tested, and the IC50 (PI3Kdelta) was 6 nM and the “Relative Selectivity versus PI3Kalpha” value (PI3Kalpha) was greater than 10.

With `CCn1c(-c2cnc(C)nc2)nc2c(-c3ccc4c(c3)C3(CCCN3)C(=O)N4)ncnc21` (single isomer, unassigned) [Compound 3-33, (R or S)-5-(9-ethyl-8-(2-methylpyrimidin-5-yl)-9H-purin-6-yl)spiro[indoline-3,2′-pyrrolidin]-2-one] the IC50 (PI3Kdelta) was 67 nM and the “Relative Selectivity versus PI3Kalpha” value (PI3Kalpha) was greater than 10.

With `CCn1c(-c2cnc(C)nc2)nc2c(-c3ccc4c(c3)C(C)(OCC3CC3)C(=O)N4)ncnc21` (single isomer, unassigned) [Compound 2-58, (R or S)-3-(cyclopropylmethoxy)-5-(9-ethyl-8-(2-methylpyrimidin-5-yl)-9H-purin-6-yl)-3-methylindolin-2-one] the IC50 (PI3Kdelta) was 7 nM and the “Relative Selectivity versus PI3Kalpha” value (PI3Kalpha) was greater than 10.

With `CCn1c(-c2cnc(C)nc2)nc2c(-c3ccc4c(c3)C(C)(N3CC(C)(O)C3)C(=O)N4)ncnc21` (single isomer, unassigned) [Compound 2-81, (R or S)-5-(9-ethyl-8-(2-methylpyrimidin-5-yl)-9H-purin-6-yl)-3-(3-hydroxy-3-methylazetidin-1-yl)-3-methylindolin-2-one] the IC50 (PI3Kdelta) was 26 nM and the “Relative Selectivity versus PI3Kalpha” value (PI3Kalpha) was greater than 10.

`Cc1ncc(-c2nc3c(-c4ccc5c(c4)C(C)(NCC(C)(F)F)C(=O)N5)ncnc3n2C)cn1` (single isomer, unassigned) [Compound 2-69, (R or S)-3-((2,2-difluoropropyl)amino)-3-methyl-5-(9-methyl-8-(2-methylpyrimidin-5-yl)-9H-purin-6-yl)indolin-2-one] was tested, and the IC50 (PI3Kdelta) was 788 nM and the “Relative Selectivity versus PI3Kalpha” value (PI3Kalpha) was 5.

`CCn1c(-c2cnc(C)nc2)nc2c(-c3ccc4c(c3)C(C)(NCC(C)C)C(=O)N4)ncnc21` (single isomer, unassigned) [Compound 2-66, (R or S)-5-(9-ethyl-8-(2-methylpyrimidin-5-yl)-9H-purin-6-yl)-3-(isobutylamino)-3-methylindolin-2-one] was tested, and the IC50 (PI3Kdelta) was 1 nM and the “Relative Selectivity versus PI3Kalpha” value (PI3Kalpha) was greater than 10.

`CCn1c(-c2cnc(C)nc2)nc2c(-c3cnc4c(c3)C(C)(CC3CC3)C(=O)N4)ncnc21` (single isomer, unassigned) [Compound 1-15, (R or S)-3-(cyclopropylmethyl)-5-(9-ethyl-8-(2-methylpyrimidin-5-yl)-9H-purin-6-yl)-3-methyl-1,3-dihydro-2H-pyrrolo[2,3-b]pyridin-2-one] was tested, and the IC50 (PI3Kdelta) was 224 nM and the “Relative Selectivity versus PI3Kalpha” value (PI3Kalpha) was greater than 10.

With `CCn1c(-c2cnc(C)nc2)nc2c(-c3ccc4oc(=O)n(C(C)C5CC5)c4c3)ncnc21` (single isomer, unassigned) [Compound 5-5, (R or S)-3-(1-cyclopropylethyl)-5-[9-ethyl-8-(2-methylpyrimidin-5-yl)-9H-purin-6-yl]-1,3-benzoxazol-2(3H)-one] the IC50 (PI3Kdelta) was 42 nM and the “Relative Selectivity versus PI3Kalpha” value (PI3Kalpha) was greater than 10.

In the case of `CCn1c(-c2cnc(C)nc2)nc2c(-c3ccc4c(c3)C(C)(CC3(C)COC3)C(=O)N4)ncnc21` (single isomer, unassigned) [Compound 1-5, (R or S)-5-[9-ethyl-8-(2-methylpyrimidin-5-yl)-9H-purin-6-yl]-3-methyl-3-[(3-methyloxetan-3-yl)methyl]-1,3-dihydro-2H-indol-2-one], the IC50 (PI3Kdelta) is reported as 177 nM and the “Relative Selectivity versus PI3Kalpha” value (PI3Kalpha) is reported as 3.

`CCn1c(-c2cnc(C)nc2)nc2c(-c3ccc4c(c3)C(C)(N3CC5(CCO5)C3)C(=O)N4)ncnc21` (single isomer, unassigned) [Compound 2-8, (R or S)-5-[9-ethyl-8-(2-methylpyrimidin-5-yl)-9H-purin-6-yl]-3-methyl-3-(1-oxa-6-azaspiro[3.3]hept-6-yl)-1,3-dihydro-2H-indol-2-one] was tested, and the IC50 (PI3Kdelta) was 129 nM and the “Relative Selectivity versus PI3Kalpha” value (PI3Kalpha) was greater than 10.

For `CCN1CCCC12C(=O)Nc1ccc(-c3ncnc4c3nc(-c3cnc(C)nc3)n4CC)cc12` (single isomer, unassigned) [Compound 3-27, (R or S)-1′-ethyl-5-(9-ethyl-8-(2-methylpyrimidin-5-yl)-9H-purin-6-yl)spiro[indoline-3,2′-pyrrolidin]-2-one], the IC50 (PI3Kdelta) was 9 nM and the “Relative Selectivity versus PI3Kalpha” value (PI3Kalpha) was greater than 10.

In the case of `CCn1c(-c2cnc(C)nc2)nc2c(-c3ccc4c(c3)C(C)(CC3(C)COC3)C(=O)N4)ncnc21` (single isomer, unassigned) [Compound 1-6, (R or S)-5-[9-ethyl-8-(2-methylpyrimidin-5-yl)-9H-purin-6-yl]-3-methyl-3-[(3-methyloxetan-3-yl)methyl]-1,3-dihydro-2H-indol-2-one], the IC50 (PI3Kdelta) is reported as 15 nM and the “Relative Selectivity versus PI3Kalpha” value (PI3Kalpha) is reported as greater than 10.

In the case of `CCn1c(-c2cnc(C)nc2)nc2c(-c3ccc4c(c3)C(C)(N3CC(C)(F)C3)C(=O)N4)ncnc21` (single isomer, unassigned) [Compound 2-64, (R or S)-5-(9-ethyl-8-(2-methylpyrimidin-5-yl)-9H-purin-6-yl)-3-(3-fluoro-3-methylazetidin-1-yl)-3-methylindolin-2-one], the IC50 (PI3Kdelta) is reported as 6 nM and the “Relative Selectivity versus PI3Kalpha” value (PI3Kalpha) is reported as greater than 10.
